Experimental data published in paper PMC10041534, “Development of Fluorescent 4-[4-(3H-Spiro[isobenzofuran-1,4′-piperidin]-1′-yl)butyl]indolyl Derivatives as High-Affinity Probes to Enable the Study of σ Receptors via Fluorescence-Based Techniques” (Journal of Medicinal Chemistry, 2023).

Legend:
σ1 receptor [1] = target: T1, σ1 receptor (Cavia porcellus, UniProt Q60492); experiment: σ1 receptor radioligand binding assay with (+)-[3H]pentazocine, guinea pig brain membranes; settings: mean of at least two experiments in duplicate, read-out: Ki ± SEM σ1
T1 construct: from tissue; host or cells: guinea pig brain without cerebellum (male Dunkin guinea pigs, Envigo)
Protocol: (§1) All of the procedures for the binding assays were previously described. σ1 and σ2 receptor binding assays were carried out according to the literature.[25] […] Incubations were stopped by addition of 1 mL of ice-cold buffer [50 mM TRIS (pH 8.0)], and then the suspension was filtered through GF/B presoaked in 0.3% polyethylenimine (PEI) for at least 60 min prior to use. The filters were washed twice with 1 mL of ice-cold buffer. […] Incubations were stopped by addition of 1 mL of ice-cold buffer [50 mM TRIS (pH 8.0)], and then the suspension was filtered through GF/B presoaked in 0.5% polyethylenimine (PEI) for at least 60 min prior to use. The filters were washed twice with 1 mL of ice-cold buffer. […] Scatchard parameters (Kd and Bmax) and apparent inhibition constants (Ki) were determined by nonlinear curve fitting using GraphPad Prism (version 5.0).[64]

σ2 receptor [2] = target: T2, σ2 receptor (Rattus norvegicus, UniProt Q5U3Y7); experiment: σ2 receptor radioligand binding assay with [3H]DTG, rat liver membranes; settings: for Ki: [3H]DTG with 1 μM (+)-pentazocine, rat liver membranes, mean of at least two experiments in duplicate, read-out: Ki ± SEM σ2
T2 construct: from tissue; host or cells: rat liver (Wistar Hannover rats, Envigo)
T2 sequence (Q5U3Y7 1-176): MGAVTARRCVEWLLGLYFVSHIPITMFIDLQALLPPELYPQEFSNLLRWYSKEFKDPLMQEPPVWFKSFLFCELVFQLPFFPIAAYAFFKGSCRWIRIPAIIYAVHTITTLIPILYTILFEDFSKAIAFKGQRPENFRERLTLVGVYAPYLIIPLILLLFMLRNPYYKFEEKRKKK
Protocol: as §1

[3] = Fluorescence spectroscopy and quantum yield measurements; type: physicochemical; settings: CHCl3
σ1 receptor [4] = target: T3, σ1 receptor (Homo sapiens, UniProt Q99720); experiment: Flow cytometry studies in MCF7σ1 cells; type: cell-based
T3 construct: expressed in transfected cells

MCF7 cells [5] = experiment: Trypan blue assay; type: cell-based, human; settings: conditions of confocal microscopy, data not shown
MCF7 cells [6] = experiment: Live cell imaging in MCF7 cells; type: cell-based, human; settings: live cell videos
[7] = RP-HPLC degradation study in PBS buffer; type: physicochemical; settings: 37 °C, RP-HPLC over 24 h
Protocol: page 12: Figure S10. RP-HPLC degradation study in buffer of compounds 19 (A) and 29 (B). Compounds were dissolved in a solution of PBS with 5% of DMSO. Then the solution was divided in 4 vials, one was used to study t0 and the other three were incubated at 37 °C for 2h, 6h and 24 h, respectively. […]

σ2 receptor [8] = target: T4, σ2 receptor (Homo sapiens, UniProt Q5BJF2); experiment: Flow cytometry saturation binding assay in MCF7 cells; settings: σ1 masked by (+)-pentazocine
Protocol: Similarly, 2 × 10^5 MCF7 cells/well were seeded in a 12-well plate and allowed to recover for 24 h at 37 °C.
At the end of the incubation periods, cells were washed twice with PBS, detached with 200 mL of Cell Dissociation Solution (Sigma Chemical Co.) for 10 min at 37 °C, centrifuged at 13000g for 5 min, and resuspended in 500 mL of PBS. The fluorescence was recorded using a Bio-Guava easyCyte 5 Flow Cytometry System (Millipore, Billerica, MA), with a 530 nm band-pass filter. For each analysis, 50000 events were collected and analyzed with the InCyte software (Millipore).

σ2 receptor [9] = target: T4, σ2 receptor; experiment: Flow cytometry studies in MCF7 and MCF7KO cells; type: cell-based; set-up: This cell line was selected on the basis of its high σ2 receptor expression levels; endogenous in cells; host or cells: MCF7 (and MCF7KO, partial TMEM97 knockdown by shRNA); settings: for accumulation (mean fluorescence intensity) in MCF7 and MCF7KO cells: 10 nM-10 μM, 45 min, σ1 masked with 10 μM (+)-pentazocine; for signal in MCF7KO cells compared with MCF7 cells: flow cytometry, σ2 receptor partially silenced
Protocol: Subsequently, the cells were harvested by trypsinization and resuspended in 250 μL of FACS-PBS. The fluorescence intensity was measured by flow cytometry using a BD LSRFortessaTM X-20 cell analyzer (Becton Dickinson, Palo Alto, CA). For this, in total 20000 cells per sample were evaluated. The results were analyzed and quantified using BD FACSDivaTM software.

σ2 receptor [10] = target: T4, σ2 receptor; experiment: Confocal microscopy, co-localization with σ2 receptor (TMEM97 ab) in fixed MCF7 cells; type: cell-based; set-up: This cell line was selected on the basis of its high σ2 receptor expression levels; endogenous in cells; host or cells: MCF7 (and MCF7KO, partial TMEM97 knockdown by shRNA); settings: 5 μM, 1 h
Protocol: Subsequently, the cells were treated with the indicated concentrations of 19 or 29 for 1 h at 37 °C. Then, the cells were washed once with PBS, harvested by trypsinization, and resuspended in 1 mL of PBS. Then, the cell preparation for confocal microscopy by using Cytospin was carried out as described by Koh et al.,[75] followed by cell fixation with 4% paraformaldehyde at room temperature for 30 min. For the staining of σ2 receptor expression, cells were permeabilized and blocked with 0.5% Triton X-100 and 1% BSA, respectively, in PBS for 30 min at room temperature followed by incubation of the primary TMEM97 antibody (diluted 1:200 in 1% BSA/0.3% Triton-PBS, Novusbio, catalog no. NBP1-30436) overnight at 4 °C in a wet chamber. The next day, the cells were washed three times with PBS and incubated with a 1:500 dilution of a secondary anti-rabbit AlexaFluor488-labeled antibody (Invitrogen, catalog no. A-11034) for 1 h at room temperature in a wet chamber. After being washed twice with PBS, the cells were incubated with a solution containing DAPI (2.5 μg/mL, D9542) for 15 min at room temperature, followed by three washes with PBS as well as ddH2O and embedding with Vectashield (Vectashield Antifade Mounting Media, Vector Laboratories, caalog no. H-1000-10). […]

σ2 receptor [11] = target: T4, σ2 receptor; experiment: Spinning disk confocal microscopy on living MCF7 cells; type: cell-based; set-up: This cell line was selected on the basis of its high σ2 receptor expression levels; endogenous in cells; host or cells: MCF7 (and MCF7KO, partial TMEM97 knockdown by shRNA); settings: for subcellular localization in living MCF7 cells: 0.05 μM, 30 min; for mitochondrial localization upon co-treatment with nonfluorescent DTG: 20 μM DTG
Protocol: MCF7 cells (2.4 × 10^4 cells/well) were seeded on IBIDI slides (coated with polymers, Science Services) and incubated at 37 °C with 5% CO2 for 48 h. Afterward, ProlongLife (Invitrogen, catalog no. P36974) was added in a 1:100 dilution to the cells and incubated for 1 h. Subsequently, the medium was removed, and the cells were stained with 250 nM MitoTracker-Bodipy FL (Invitrogen, catalog no. P36974) in phenol red-free medium for 30 min at 37 °C with 5% CO2. […] In addition, Hoechst 33342 (0.05 μM) was added 15 min prior to measurement to counterstain for nuclei. Finally, z-stacks of the living cells were performed using an Olympus IXplore SpinSR spinning disk confocal microscope. In total, three pictures per spot were obtained. The Cy-5 intensities of the ligands based on the localization of the GFP- signal of the mitochondria were calculated by the commercially available software cellSens from Olympus. Statistical analysis was performed using GraphPad Prism (version 8).

[12] = DTG (20 μM) as non-fluorescent σ2 reference ligand
[13] = compound 2 (10 μM) as non-fluorescent σ2 reference ligand

T4 sequence (Q5BJF2 whole entry): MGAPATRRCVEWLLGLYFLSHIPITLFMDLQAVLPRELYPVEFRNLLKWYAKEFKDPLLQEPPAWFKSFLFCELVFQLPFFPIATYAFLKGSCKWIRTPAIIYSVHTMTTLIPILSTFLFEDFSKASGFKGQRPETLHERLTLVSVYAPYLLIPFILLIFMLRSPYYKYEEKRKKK
T1 sequence (Q60492 whole entry): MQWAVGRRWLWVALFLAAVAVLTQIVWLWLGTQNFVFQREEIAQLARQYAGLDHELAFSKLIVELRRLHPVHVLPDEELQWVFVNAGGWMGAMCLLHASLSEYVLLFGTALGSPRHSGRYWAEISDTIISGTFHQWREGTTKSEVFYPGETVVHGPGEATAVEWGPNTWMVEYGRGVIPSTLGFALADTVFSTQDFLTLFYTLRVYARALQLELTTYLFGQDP
T3 sequence (Q99720 whole entry, species assumed): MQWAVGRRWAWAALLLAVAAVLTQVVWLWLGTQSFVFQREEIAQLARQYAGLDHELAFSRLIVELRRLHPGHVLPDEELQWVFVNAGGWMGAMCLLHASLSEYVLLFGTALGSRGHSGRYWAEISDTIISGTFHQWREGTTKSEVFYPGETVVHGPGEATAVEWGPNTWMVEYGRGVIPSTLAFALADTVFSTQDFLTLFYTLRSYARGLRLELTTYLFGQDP

Structure (SMILES)	Ki (σ1 receptor [1])	Ki (σ2 receptor [2])	quantum yield [3]	λem [3]	λex [3]	uptake in MCF7σ1 cells upon administration of (+)-pentazocine (σ1 receptor [4]; σ2 masked with 2 (10 μM), (+)-pentazocine 10 μM)	fluorescent signal in MCF7σ1 cells (σ1 receptor [4]; σ2 receptor masked with 10 μM compound 2)	cytotoxicity (MCF7 cells [5])	entry into living MCF7 cells (MCF7 cells [6])	stability [7]	Kd (σ2 receptor [8]; [12])	Kd (σ2 receptor [8]; [13])	accumulation (mean fluorescence intensity) in MCF7 and MCF7KO cells (σ2 receptor [9])	signal in MCF7KO cells compared with MCF7 cells (σ2 receptor [9])	subcellular localization versus σ2 receptor distribution (TMEM97ab) (σ2 receptor [10])	subcellular localization in living MCF7 cells (σ2 receptor [11])	mitochondrial localization upon co-treatment with nonfluorescent DTG (σ2 receptor [11])	σ2 selectivity over σ1 (σ2 receptor [2]; from Ki values at σ1 and σ2)
C[N+]1=C(/C=C/C=C/C=C2\N(CCCCCC(=O)NCCCCCCn3cc(CCCCN4CCC5(CC4)OCc4ccccc45)c4ccccc43)c3ccccc3C2(C)C)C(C)(C)c2ccccc21.[I-] [Compound 19, 2-{(1E,3E)-5-[(E)-1-{6-[(6-{3-[4-(3H-Spiro[isobenzofuran-1,4′-piperidin]-1′-yl)butyl]-1H-indol-1-yl}hexyl)amino]-6-oxohexyl}-3,3-dimethylindolin-2-ylidene]penta-1,3-dien-1-yl}-1,3,3-trimethyl-3H-indol-1-ium]	51.3 ± 3.2 nM	30.2 ± 3.5 nM	52.86%	678 nm	657 nm	abated	dose-dependent increase	neither 19 nor 29 was cytotoxic	rapid entry	stability of the two compounds was demonstrated	13.6 nM	19.3 nM	dose-dependent manner	visibly weaker	overlapped with the σ2 receptor distribution	mitochondrial localization	significantly reduced	
C[N+]1=C(/C=C/C=C/C=C2/N(CCCCCC(=O)Nc3ccc4ccn(CCCCN5CCC6(CC5)OCc5ccccc56)c4c3)c3ccccc3C2(C)C)C(C)(C)c2ccccc21.[I-] [Compound 29, 2-[(1E,3E)-5-{(Z)-1-[6-({1-[4-(3H-Spiro[isobenzofuran-1,4′-piperidin]-1′-yl)butyl]-1H-indol-6-yl}amino)-6-oxohexyl]-3,3-dimethylindolin-2-ylidene}penta-1,3-dien-1-yl]-1,3,3-trimethyl-3H-indol-1-ium]	448 ± 80 nM	51.1 ± 5.1 nM	47.83%	678 nm	657 nm			neither 19 nor 29 was cytotoxic	rapid entry	stability of the two compounds was demonstrated	18.7 nM	13.8 nM	dose-dependent manner	visibly weaker	overlapped with the σ2 receptor distribution	mitochondrial localization	significantly reduced	~10 fold
